IC50 data for two molecules are collected here from ChEMBL document CHEMBL1125233, “2,4-Diamino-5-benzylpyrimidines as antibacterial agents. 14. 2,3-Dihydro-1-(2,4-diamino-5-pyrimidyl)-1H-indenes as conformationally restricted analogues of trimethoprim” (J Med Chem, 1991).

Experiment [1] deals with Dihydrofolate reductase (Neisseria gonorrhoeae, UniProt P04174). The experiment is described as follows: Inhibitory activity against Neisseria gonorrhoeae dihydrofolate reductase at 10e8 M. The note with it: read-out: I50.
Sequence of Dihydrofolate reductase (Neisseria gonorrhoeae, UniProt P04174) (P04174 whole entry): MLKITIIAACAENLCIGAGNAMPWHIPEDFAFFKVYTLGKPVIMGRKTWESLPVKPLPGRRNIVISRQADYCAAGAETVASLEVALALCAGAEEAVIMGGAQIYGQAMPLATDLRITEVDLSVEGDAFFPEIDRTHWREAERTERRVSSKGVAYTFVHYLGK
For experiment [2], the target named is T1, Dihydrofolate reductase (Rattus norvegicus, UniProt Q920D2).
T1 sequence (Q920D2 whole entry): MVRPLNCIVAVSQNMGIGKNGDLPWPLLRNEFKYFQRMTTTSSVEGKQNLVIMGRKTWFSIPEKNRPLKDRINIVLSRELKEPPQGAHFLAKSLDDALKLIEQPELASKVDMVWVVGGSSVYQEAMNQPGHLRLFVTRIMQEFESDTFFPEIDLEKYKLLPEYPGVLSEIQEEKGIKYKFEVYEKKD
The experiment in a line: Inhibitory activity against rat liver dihydrofolate reductase at 10e8 M. The settings on record: read-out: I50.

In the case of `COc1cc2c(cc1OC)C(c1cnc(N)nc1N)CC2` (stereo not drawn), the IC50 at Dihydrofolate reductase [1] came out at 9.7 µM; on Dihydrofolate reductase [2] it was 410 µM. With `COc1ccc(Cc2cnc(N)nc2N)cc1OC` [DIAVERIDINE], the IC50 on Dihydrofolate reductase [2] is 70 µM.
